Measurements as given in PMC4096222 (Journal of Medicinal Chemistry, 2014).

Legend:
A/M2 S31N = A/M2 S31N (Influenza A virus, UniProt P0DOF5, S31N); type: cell-based, influenza A/Udorn/72; details: for A/M2 S31N inhibition by 100 μM for 2 min (mean ± SE): pH 5.5
A/PR/8/34 (A/H1N1) = type: cell-based, influenza A virus
A/M2 V27A = A/M2 V27A (Influenza A virus, UniProt P0DOF5, V27A); type: cell-based, influenza A/Udorn/72

Row | Compound | A/M2 S31N inhibition by 100 μM for 2 min (mean ± SE) (A/M2 S31N) [%] | activity against A/PR/8/34 strain (A/PR/8/34 (A/H1N1)) | also measured
1 | C1=CC2C3CNCC3C1C1CC21.Cl (stereo not shown) [compound 4, 4-Azatetracyclo[5.3.2.0^2,6.0^8.10]dodec-11-ene Hydrochloride] | 0 | – | –
2 | Cl.N=C(N)N1CC2C3C=CC(C4CC34)C2C1 (stereo not shown) [compound 5, 4-Amidino-4-azatetracyclo[5.3.2.0^2,6.0^8.10]dodec-11-ene Hydrochloride] | 0 | – | –
3 | C1=CC2C3CC3C1C1CN(C3CCNCC3)CC21.Cl (stereo not shown) [compound 8, 4-(4-Piperidinyl)-4-azatetracyclo[5.3.2.0^2,6.0^8.10]dodec-11-ene Dihydrochloride] | – | strong activity | –
4 | C1=CC2C1C1C=CC2C2CNCC12.Cl (stereo not shown) [compound 11, 4-Azatetracyclo[5.4.2.0^2,6.0^8.11]trideca-9,12-diene Hydrochloride] | – | strong activity | –
5 | Cl.N=C(N)N1CC2C3CCC(C4CCC43)C2C1 (stereo not shown) [compound 14, 4-Amidino-4-azatetracyclo[5.4.2.0^2,6.0^8.11]tridecane Hydrochloride] | – | – | activity against V27A M2 mutant channel (A/M2 V27A): fair activity
6 | CC12CC34CNCC35CC1(C)C(C)(C5)C2(C)C4.Cl (stereo not shown) [compound 18, 7,8,9,10-Tetramethyl-3-azapentacyclo[7.2.1.1^5,8.0^1,5.0^7,10]tridecane Hydrochloride] | – | strong activity | inhibition of S31N mutant ion channel (A/M2 S31N): lack of inhibitory potency
